# From patent publication US12528802B2, “Heterocyclic compound” (Takeda Pharmaceutical Company Limited, priority 2019, dated 2026)
# Target: T1, glucosylceramide synthase (Homo sapiens, UniProt Q16739)
# T1 construct: made in house; host or cells: Expi293F cells (transient expression, pcDNA3.3-TOPO vector); microsome fraction used as enzyme source
# T1 sequence (Q16739 1-394): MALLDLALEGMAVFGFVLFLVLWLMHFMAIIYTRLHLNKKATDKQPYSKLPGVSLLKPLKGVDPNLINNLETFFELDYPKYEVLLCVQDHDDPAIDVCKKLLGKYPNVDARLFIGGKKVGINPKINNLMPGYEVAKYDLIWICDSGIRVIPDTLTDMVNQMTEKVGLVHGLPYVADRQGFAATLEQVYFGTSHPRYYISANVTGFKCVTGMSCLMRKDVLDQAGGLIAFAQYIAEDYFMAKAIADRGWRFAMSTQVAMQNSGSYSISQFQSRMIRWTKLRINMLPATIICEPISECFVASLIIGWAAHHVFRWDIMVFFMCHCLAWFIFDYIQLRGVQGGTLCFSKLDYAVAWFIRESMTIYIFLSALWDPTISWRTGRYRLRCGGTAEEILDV
# Assay: Glucosylceramide synthase (GCS) enzyme assay, microsome fraction, C8 glucosylceramide quantified by Rapidfire MS/MS
# Format: biochemical
# Conditions: test compound 10 μM; 1.7 μM UDP-glucose, 3 μM C8 ceramide; room temperature 60 min; read-out: GCS enzyme inhibitory rate at 10 μM (%) (% of control)
# Summary of the method: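 Test compound, 10 μM final, was run against human GCS from transfected Expi293F microsome fractions, using substrate solution of 6 μM C8 ceramide (in DOPC liposomes) plus 3.4 μM UDP-glucose, pH 7.5 Tris buffer, 60 min, room temperature. Product C8 glucosylceramide measured by Rapidfire MS/MS against an internal standard, % inhibition referenced to no-enzyme and DMSO wells.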
row,Compound,inhibition at 10 µM [%]
1,"O=C1c2ccnc(-c3ccncc3OCC(F)(F)F)c2CN1c1ccc(OC(F)F)nc1 [Example 105, 2-[6-(difluoromethoxy)pyridin-3-yl]-4-[3-(2,2,2-trifluoroethoxy)pyridin-4-yl]-2,3-dihydro-1H-pyrrolo[3,4-c]pyridin-1-one]",96
2,"O=C(c1ccc(-c2nccc3c2CN(c2ccc(OC(F)F)cc2)C3=O)c(OC(F)F)c1)N1CCC1 [Example 124, 4-[4-(azetidine-1-carbonyl)-2-(difluoromethoxy)phenyl]-2-[4-(difluoromethoxy)phenyl]-2,3-dihydro-1H-pyrrolo[3,4-c]pyridin-1-one]",98
3,"COCc1ccc(N2Cc3c(ccnc3-c3ccc(F)cc3OCC(F)(F)F)C2=O)cc1 [Example 147, 4-[4-fluoro-2-(2,2,2-trifluoroethoxy)phenyl]-2-[4-(methoxymethyl)phenyl]-2,3-dihydro-1H-pyrrolo[3,4-c]pyridin-1-one]",94
4,"O=C1c2ccc(=O)n(-c3ccccc3OCC(F)(F)F)c2CN1c1ccc(OC(F)(F)F)cc1 [Example 149, 1-[2-(2,2,2-trifluoroethoxy)phenyl]-6-[4-(trifluoromethoxy)phenyl]-6,7-dihydro-1H-pyrrolo[3,4-b]pyridine-2,5-dione]",99
5,"O=C1c2ccnc(-c3ccncc3OCC(F)(F)F)c2CN1c1ccc(C2(F)COC2)cc1 [Example 294, 2-[4-(3-fluorooxetan-3-yl)phenyl]-4-[3-(2,2,2-trifluoroethoxy)pyridin-4-yl]-2,3-dihydro-1H-pyrrolo [3,4-c]pyridin-1-one]",99
6,"Cn1cc2c(c(-c3ccc(F)cc3OCC(F)(F)F)c1=O)CN(c1ccc(OC(F)F)cc1)C2=O [Example 196, 2-[4-(difluoromethoxy)phenyl]-7-[4-fluoro-2-(2,2,2-trifluoroethoxy)phenyl]-5-methyl-1H-pyrrolo[3,4-c]pyridine-3,6(2H,5H)-dione]",100
7,"Cc1cc2c(c(-c3ccc(F)cc3OCC(F)(F)F)n1)CN(c1ccc(C3(O)CCOCC3)cc1)C2=O [Example 352, 4-[4-fluoro-2-(2,2,2-trifluoroethoxy)phenyl]-2-[4-(4-hydroxyoxan-4-yl)phenyl]-6-methyl-2,3-dihydro-1H-pyrrolo[3,4-c] pyridin-1-one]",100
8,"O=C1c2ccnc(-c3ccc(F)cc3OCc3ccccc3)c2CN1c1ccc(OC(F)F)cc1 [Example 114, 4-[2-(benzyloxy)-4-fluorophenyl]-2-[4-(difluoromethoxy)phenyl]-2,3-dihydro-1H-pyrrolo[3,4-c]pyridin-1-one]",99
9,"O=C(c1ccc(-c2nccc3c2CN(c2ccc(F)cc2)C3=O)c(OC(F)F)c1)N1CCC1 [Example 78, 4-[4-(azetidine-1-carbonyl)-2-(difluoromethoxy)phenyl]-2-(4-fluorophenyl)-2,3-dihydro-1H-pyrrolo[3,4-c]pyridin-1-one]",79
10,"Cn1nc(N2Cc3c(ccnc3-c3ccc(F)cc3OCC(F)(F)F)C2=O)cc1C1CC1 [Example 239, 2-(5-cyclopropyl-1-methyl-1H-pyrazol-3-yl)-4-[4-fluoro-2-(2,2,2-trifluoroethoxy)phenyl]-2,3-dihydro-1H-pyrrolo[3,4-c]pyridin-1-one]",51
11,"O=C1c2ccnc(-c3ccc(F)cc3OCC(F)(F)F)c2CN1c1ccc(C2(O)CCOCC2)c(F)c1 [Example 219, 2-[3-fluoro-4-(4-hydroxyoxan-4-yl)phenyl]-4-[4-fluoro-2-(2,2,2-trifluoroethoxy)phenyl]-2,3-dihydro-1H-pyrrolo[3,4-c]pyridin-1-one]",98
12,"O=C1c2ccnc(-c3ccc(F)cc3OCC(F)(F)F)c2CN1c1ccc(C2(O)CC2)cc1 [Example 225, 4-[4-fluoro-2-(2,2,2-trifluoroethoxy)phenyl]-2-[4-(l-hydroxycyclopropyl)phenyl]-2,3-dihydro-1H-pyrrolo[3,4-c]pyridin-1-one]",94
13,"Cc1cc2c(c(-c3ccc(F)cc3OCC(F)(F)F)n1)CN(c1ccc(C(C)(C)O)cc1)C2=O [Example 351, 4-[4-fluoro-2-(2,2,2-trifluoroethoxy)phenyl]-2-[4-(2-hydroxypropan-2-yl)phenyl]-6-methyl-2,3-dihydro-1H-pyrrolo[3,4-c]pyridin-1-one]",100
14,"Cc1nn(-c2ccc(F)cc2OCC(F)(F)F)c2c1C(=O)N(c1ccc(F)cc1)C2 [Example 92, 5-(4-fluorophenyl)-1-[4-fluoro-2-(2,2,2-trifluoroethoxy)phenyl]-3-methyl-5,6-dihydropyrrolo[3,4-c]pyrazol-4(1H)-one]",57

# Continued, values first:
row,inhibition at 10 µM [%],Compound
1,99,"O=C1c2ccnc(-c3ccccc3OCC(F)(F)F)c2CN1c1ccc(C(F)(F)F)cn1 [Example 60, 4-[2-(2,2,2-trifluoroethoxy)phenyl]-2-[5-(trifluoromethyl)pyridin-2-yl]-2,3-dihydro-1H-pyrrolo[3,4-c]pyridin-1-one]"
2,96,"COc1ccccc1-c1nccc2c1CN(c1ccc(OC(F)(F)F)cn1)C2=O [Example 29, 4-(2-methoxyphenyl)-2-[5-(trifluoromethoxy)pyridin-2-yl]-2,3-dihydro-1H-pyrrolo[3,4-c]pyridin-1-one]"
3,93,"COc1ccccc1-c1nccc2c1CN(c1ccc(OC(F)F)cn1)C2=O [Example 39, 2-[5-(difluoromethoxy)pyridin-2-yl]-4-(2-methoxyphenyl)-2,3-dihydro-1H-pyrrolo[3,4-c]pyridin-1-one]"
4,95,"COc1ccccc1-c1nccc2c1CN(c1ccc(F)cn1)C2=O [Example 43, 2-(5-fluoropyridin-2-yl)-4-(2-methoxyphenyl)-2,3-dihydro-1H-pyrrolo[3,4-c]pyridin-1-one]"
5,99,"CC(C)(O)c1ccc(N2Cc3c(ccnc3-c3ccccc3OCC(F)F)C2=O)nc1 [Example 288, 4-[2-(2,2-difluoroethoxy)phenyl]-2-[5-(2-hydroxypropan-2-yl)pyridin-2-yl]-2,3-dihydro-1H-pyrrolo [3,4-c]pyridin-1-one]"
6,97,"CC(C)(O)COc1cnc(N2Cc3c(ccnc3-c3ccc(F)cc3OCC(F)(F)F)C2=O)cn1 [Example 299, 4-[4-fluoro-2-(2,2,2-trifluoroethoxy)phenyl]-2-[5-(2-hydroxy-2-methylpropoxy)pyrazin-2-yl]-2,3-dihydro-1H-pyrrolo [3,4-c]pyridin-1-one]"
7,99,"O=C1c2ccnc(-c3ccccc3OCC(F)(F)F)c2CN1c1cnn(CC2(F)CC2)c1 [Example 248, 2-{1-[(1-fluorocyclopropyl)methyl]-1H-pyrazol-4-yl}-4-[2-(2,2,2-trifluoroethoxy)phenyl]-2,3-dihydro-1H-pyrrolo[3,4-c]pyridin-1-one]"
8,89,"Cn1ccc(N2Cc3c(ccnc3-c3ccc(F)cc3OCC(F)(F)F)C2=O)n1 [Example 45, 4-[4-fluoro-2-(2,2,2-trifluoroethoxy)phenyl]-2-(1-methyl-1H-pyrazol-3-yl)-2,3-dihydro-1H-pyrrolo[3,4-c]pyridin-1-one]"
9,99,"COc1ccccc1-c1nccc2c1CN(c1ccc(C3CC3)cc1)C2=O [Example 4, 2-(4-cyclopropylphenyl)-4-(2-methoxyphenyl)-2,3-dihydro-1H-pyrrolo[3,4-c]pyridin-1-one]"
10,99,"CC(O)(c1ccc(N2Cc3c(ccnc3-c3ccc(F)cc3OCC(F)(F)F)C2=O)cc1)C(F)(F)F (racemic) [Example 312, rac-4-[4-fluoro-2-(2,2,2-trifluoroethoxy)phenyl]-2-[4-(1,1,1-trifluoro-2-hydroxypropan-2-yl)phenyl]-2,3-dihydro-1H-pyrrolo [3,4-c]pyridin-1-one]"
11,96,"CC(C)(O)COc1ccc(N2Cc3c(ccnc3-c3ccccc3OCC(F)(F)F)C2=O)cn1 [Example 233, 2-[6-(2-hydroxy-2-methylpropoxy)pyridin-3-yl]-4-[2-(2,2,2-trifluoroethoxy)phenyl]-2,3-dihydro-1H-pyrrolo[3,4-c]pyridin-1-one]"
12,100,"CC(C)(O)c1ccc(N2Cc3c(cc(C(F)F)nc3-c3ccccc3OCC(F)(F)F)C2=O)cc1 [Example 327, 6-(difluoromethyl)-2-[4-(2-hydroxypropan-2-yl)phenyl]-4-[2-(2,2,2-trifluoroethoxy)phenyl]-2,3-dihydro-1H-pyrrolo[3,4-c]pyridin-1-one]"
13,98,"N#CCOc1cc(F)ccc1-c1nccc2c1CN(c1ccc(OC(F)F)nc1)C2=O [Example 112, (2-{2-[6-(difluoromethoxy)pyridin-3-yl]-1-oxo-2,3-dihydro-1H-pyrrolo[3,4-c]pyridin-4-yl}-5-fluorophenoxy)acetonitrile]"
14,100,"CC(O)(c1ccc(N2Cc3c(ccnc3-c3ccc(F)cc3OCC(F)(F)F)C2=O)cc1)C(F)F (racemic) [Example 296, rac-2-[4-(1,1-difluoro-2-hydroxypropan-2-yl)phenyl]-4-[4-fluoro-2-(2,2,2-trifluoroethoxy)phenyl]-2,3-dihydro-1H-pyrrolo[3,4-c]pyridin-1-one]"
15,100,"O=C1c2ccnc(-c3ccccc3OCC(F)(F)F)c2CN1c1ccc(OC(F)F)cn1 [Example 54, 2-[5-(difluoromethoxy)pyridin-2-yl]-4-[2-(2,2,2-trifluoroethoxy)phenyl]-2,3-dihydro-1H-pyrrolo[3,4-c]pyridin-1-one]"
